We go through eight compounds from US6867192B1, “Compounds useful in the treatment of inflammatory diseases” (priority 1998, dated 2005).

The subject of one series is CD4+ T-cells. The series can be described thus: CD3/VCAM-1 co-stimulation of T-lymphocyte proliferation. It counts as cell-based. Conditions: T-cell; [3H] thymidine incorporation, 4 days incubation, anti-CD3/zzVCAM-1 coated plates. As for the experimental part:
(2) CD3/VCAM-1 Co-stimulation of T-Lymphocyte Proliferation
CD4^+ T-cells were purified from peripheral blood mononuclear cells by negative selection with anti-CD14, CD19, CD16 and HLA.DR antibodies and Dynal beads. Flat bottomed 96-well tissue culture plates were coated with 1 μg ml^−1 anti-CD3 antibody (OKT3), washed and incubated with human IgG and zzVCAM-1 fusion proteins. The CD4^+ T cells (prepared in RPMI-1640 medium supplemented with 10% FCS, penicillin or streptomycin and L-glutamine) were added to the coated plates (1×10^5 cells well^−1) and incubated in the presence or absence of various doses of compound or blocking antibodies for 4 days. Radiolabelled thymidine [^3H] was added for the final 6 hours of incubation and the cells were then harvested using a Skatron plate harvester. Incorporation of the [^3H] label was measured as an indicator of T cell proliferation using a β plate counter. Compounds were assayed in triplicate and data was collected in an analogous procedure to that described for Assay (1).
In general terms: Dividing cells build labelled thymidine or BrdU into new DNA.

The target in series [1] is T1, integrin VLA-4, expressed on the Jurkat J6 (human lymphoblast cell line) cell membrane with VCAM-1 (Homo sapiens, UniProt P05556+P13612).
T1 construct: integrin VLA-4, expressed on the Jurkat J6 (human lymphoblast cell line) cell membrane; endogenous in cells; host or cells: Jurkat J6 cells (integrin). zzVCAM-1 was made in house in Drosophila melanogaster S2 cells
The experiment in a line: Jurkat J6/VCAM-1 adhesion assay. The format is cell-based. Conditions: Jurkat J6 cell adhesion to VCAM-1, 1 mM MnCl2; mean of n experiments. Summed up: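 Jurkat J6 cells loaded with BCECF-AM were added with compound in HBSS with 1 mM MnCl2 to plates coated with IgG-captured zzVCAM-1 (seven-domain, S2-expressed) and left to adhere for 30 min at 37 °C. After washing, fluorescence was read. pIC50 came from a four-parameter fit between no compound and 2 mM EDTA.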

A short description of a further series: Solubility in water. It counts as physicochemical.

Converted amounts (≈) assume the structure as drawn.

In general, IC50 refers to the concentration needed to halve the response being measured. Read a high IC50 as lower potency. By solubility is commonly meant how much of the substance goes into solution per volume.

T1 sequence (P13612 34-1032): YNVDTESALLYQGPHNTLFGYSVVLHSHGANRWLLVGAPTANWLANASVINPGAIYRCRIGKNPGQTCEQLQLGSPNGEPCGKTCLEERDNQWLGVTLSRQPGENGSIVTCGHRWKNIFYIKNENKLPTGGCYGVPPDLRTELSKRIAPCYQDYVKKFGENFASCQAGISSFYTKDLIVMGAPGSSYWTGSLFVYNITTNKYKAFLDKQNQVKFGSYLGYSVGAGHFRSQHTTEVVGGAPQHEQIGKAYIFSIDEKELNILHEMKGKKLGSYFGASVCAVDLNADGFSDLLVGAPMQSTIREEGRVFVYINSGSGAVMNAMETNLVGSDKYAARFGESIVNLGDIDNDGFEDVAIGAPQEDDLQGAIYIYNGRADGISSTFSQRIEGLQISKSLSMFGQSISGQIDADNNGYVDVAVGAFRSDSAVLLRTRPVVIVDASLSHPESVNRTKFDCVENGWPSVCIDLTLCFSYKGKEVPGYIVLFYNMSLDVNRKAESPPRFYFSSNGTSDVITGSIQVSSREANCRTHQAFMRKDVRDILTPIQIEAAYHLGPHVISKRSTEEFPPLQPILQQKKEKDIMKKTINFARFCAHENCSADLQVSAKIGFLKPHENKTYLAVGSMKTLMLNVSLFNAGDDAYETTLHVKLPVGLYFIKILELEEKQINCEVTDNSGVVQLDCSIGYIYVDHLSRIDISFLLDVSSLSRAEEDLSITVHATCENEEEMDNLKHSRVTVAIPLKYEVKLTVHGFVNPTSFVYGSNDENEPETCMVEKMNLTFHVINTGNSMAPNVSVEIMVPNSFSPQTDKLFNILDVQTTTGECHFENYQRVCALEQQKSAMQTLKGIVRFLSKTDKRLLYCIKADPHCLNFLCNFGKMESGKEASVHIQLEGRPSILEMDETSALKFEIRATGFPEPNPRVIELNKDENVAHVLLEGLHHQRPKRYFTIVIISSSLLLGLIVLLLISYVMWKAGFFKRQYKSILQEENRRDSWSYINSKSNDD
T1 sequence (P05556 21-798): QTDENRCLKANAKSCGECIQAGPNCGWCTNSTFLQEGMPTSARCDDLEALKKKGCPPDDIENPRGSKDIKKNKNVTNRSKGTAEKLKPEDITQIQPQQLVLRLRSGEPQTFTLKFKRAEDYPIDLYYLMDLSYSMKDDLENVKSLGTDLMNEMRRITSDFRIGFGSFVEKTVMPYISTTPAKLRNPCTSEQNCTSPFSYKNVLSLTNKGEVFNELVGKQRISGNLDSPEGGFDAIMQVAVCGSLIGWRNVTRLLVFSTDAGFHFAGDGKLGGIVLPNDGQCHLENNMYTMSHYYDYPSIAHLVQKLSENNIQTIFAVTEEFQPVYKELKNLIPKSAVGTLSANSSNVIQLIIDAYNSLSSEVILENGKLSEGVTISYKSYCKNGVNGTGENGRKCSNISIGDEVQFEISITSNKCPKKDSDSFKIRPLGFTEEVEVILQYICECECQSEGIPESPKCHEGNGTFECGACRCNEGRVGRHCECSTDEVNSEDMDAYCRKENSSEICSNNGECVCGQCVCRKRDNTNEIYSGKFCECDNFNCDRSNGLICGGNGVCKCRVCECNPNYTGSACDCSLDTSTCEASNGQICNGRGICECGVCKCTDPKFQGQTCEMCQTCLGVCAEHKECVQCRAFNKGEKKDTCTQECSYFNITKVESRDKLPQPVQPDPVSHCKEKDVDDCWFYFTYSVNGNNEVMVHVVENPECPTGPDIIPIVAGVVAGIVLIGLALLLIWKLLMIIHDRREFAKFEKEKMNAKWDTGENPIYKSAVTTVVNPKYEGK

Regarding `CC(=O)N1CCN(C(=O)Oc2ccc(C[C@H](NC(=O)[C@H](CC(C)C)NC(=O)COc3ccccc3C(C)(C)C)C(=O)O)cc2)CC1` [Example 16, (2S)-3-(4-{[(4-Acetyl-1-piperazinyl)carbonyl]oxy}phenyl)-2-{[(2S)-2-({2-[2-(tert-butyl)phenoxy]acetyl}amino)-4-methylpentanoyl]amino}propanoic acid], the IC50 in the series with CD4+ T-cells was 39.8 nM; in series [1], 3.24 nM.

In the case of `Cc1ccccc1OCC(=O)N[C@@H](CC(C)C)C(=O)N[C@@H](Cc1ccc(OC(=O)N2CCC(C(N)=O)CC2)cc1)C(=O)O` [Example 27, (2S)-3-[4-({[4-(Aminocarbonyl)-1-piperidinyl]carbonyl}oxy)phenyl]-2-[((2S)-4-methyl-2-{[2-(2-methylphenoxy)acetyl]amino}pentanoyl)amino]propanoic acid], the IC50 is 31.6 nM in the series with CD4+ T-cells and 2.82 nM in series [1]. In the series “Solubility in water”, this compound registered a solubility of 10 µg/mL (≈ 16.8 µM).

For the compound `CC(C)C[C@H](NC(=O)COc1ccccc1I)C(=O)N[C@@H](Cc1ccc(OC(=O)N2CCOCC2)cc1)C(=O)O` [Example 23, (2S)-2-[((2S)-2-{[2-(2-Iodophenoxy)acetyl]amino}-4-methylpentanoyl)amino]-3-{4-[(4-morpholinylcarbonyl)oxy]phenyl}propanoic acid], the IC50 in the series with CD4+ T-cells is 126 nM; in series [1], 4.47 nM.

Take `CC(C)C[C@H](NC(=O)c1cccc2c1oc1ccccc12)C(=O)N[C@@H](Cc1ccc(OC(=O)N2CCC(C(N)=O)CC2)cc1)C(=O)O` [Example 28, (2S)-3-[4-({[4-(Aminocarbonyl)-1-piperidinyl]carbonyl}oxy)phenyl]-2-({(2S)-2-[(dibenzo[b,d]furan-4-ylcarbonyl)amino]-4-methylpentanoyl}amino)propanoic acid]: the IC50 with CD4+ T-cells was 158 nM; in series [1] it was 3.47 nM.

Consider `Cc1ccccc1OCC(=O)N[C@@H](CC(C)C)C(=O)N[C@@H](Cc1ccc(OC(=O)N2CCN(C(=O)c3ccccc3)CC2)cc1)C(=O)O` [Example 21, (2S)-3-(4-{[(4-Benzoyl-1-piperazinyl)carbonyl]oxy}phenyl)-2-[((2S)-4-methyl-2-{[2-(2-methylphenoxy)acetyl]amino}pentanoyl)amino]propanoic acid], for which the IC50 in the series with CD4+ T-cells was 126 nM; in series [1] it was 3.89 nM.

With `CC(=O)N1CCN(C(=O)Oc2ccc(C[C@H](NC(=O)[C@H](CC(C)C)NC(=O)COc3ccccc3C)C(=O)O)cc2)CC1` [Example 17, (2S)-3-(4-{[(4-Acetyl-1-piperazinyl)carbonyl]oxy}phenyl)-2-[((2S)-4-methyl-2-{[2-(2-methylphenoxy)acetyl]amino}pentanoyl)amino]propanoic acid], the IC50 was 31.6 nM in the series with CD4+ T-cells and 2.57 nM in series [1].

With `CC(C)C[C@H](NC(=O)COc1ccccc1C(C)(C)C)C(=O)N[C@@H](Cc1ccc(OC(=O)N2CCOCC2)cc1)C(=O)O` [Example 24, (2S)-2-{[(2S)-2-({2-[2-(Tert-butyl)phenoxy]acetyl}amino)-4-methylpentanoyl]amino}-3-{4-[(4-morpholinylcarbonyl)oxy]phenyl}propanoic acid], the figures for the IC50 (in the series on CD4+ T-cells; in series [1]) were 79.4 nM and 6.03 nM, respectively.

On to `CC(C)C[C@H](NC(=O)COc1ccccc1C(C)(C)C)C(=O)N[C@@H](Cc1ccc(OC(=O)N2CCN(C(=O)c3ccccc3)CC2)cc1)C(=O)O` [Example 20, (2S)-3-(4-{[(4-Benzoyl-1-piperazinyl)carbonyl]oxy}phenyl)-2-{[(2S)-2-({2-[2-(tert-butyl)phenoxy]acetyl}amino)-4-methylpentanoyl]amino}propanoic acid], for which the results for the IC50 (with CD4+ T-cells; in series [1]) were 126 nM and 14.8 nM, respectively.
